# According to PMC9929129, “Towards Translation of PqsR Inverse Agonists: From In Vitro Efficacy Optimization to In Vivo Proof‐of‐Principle” (Advanced Science, 2023):
# Where two headings read alike, the source gives them in different places.
# Columns and labels:
# [1] = biological target: T1, TRPV4 channel (Homo sapiens, UniProt Q9HBA0); assay: Ion channel profiling at Charles River: TRPV4; format: cell-based; details: expressed in CHO cells; read-out: ESTIMATED IC50
# T1 construct: host or cells: CHO cells
# T1 sequence (Q9HBA0 whole entry): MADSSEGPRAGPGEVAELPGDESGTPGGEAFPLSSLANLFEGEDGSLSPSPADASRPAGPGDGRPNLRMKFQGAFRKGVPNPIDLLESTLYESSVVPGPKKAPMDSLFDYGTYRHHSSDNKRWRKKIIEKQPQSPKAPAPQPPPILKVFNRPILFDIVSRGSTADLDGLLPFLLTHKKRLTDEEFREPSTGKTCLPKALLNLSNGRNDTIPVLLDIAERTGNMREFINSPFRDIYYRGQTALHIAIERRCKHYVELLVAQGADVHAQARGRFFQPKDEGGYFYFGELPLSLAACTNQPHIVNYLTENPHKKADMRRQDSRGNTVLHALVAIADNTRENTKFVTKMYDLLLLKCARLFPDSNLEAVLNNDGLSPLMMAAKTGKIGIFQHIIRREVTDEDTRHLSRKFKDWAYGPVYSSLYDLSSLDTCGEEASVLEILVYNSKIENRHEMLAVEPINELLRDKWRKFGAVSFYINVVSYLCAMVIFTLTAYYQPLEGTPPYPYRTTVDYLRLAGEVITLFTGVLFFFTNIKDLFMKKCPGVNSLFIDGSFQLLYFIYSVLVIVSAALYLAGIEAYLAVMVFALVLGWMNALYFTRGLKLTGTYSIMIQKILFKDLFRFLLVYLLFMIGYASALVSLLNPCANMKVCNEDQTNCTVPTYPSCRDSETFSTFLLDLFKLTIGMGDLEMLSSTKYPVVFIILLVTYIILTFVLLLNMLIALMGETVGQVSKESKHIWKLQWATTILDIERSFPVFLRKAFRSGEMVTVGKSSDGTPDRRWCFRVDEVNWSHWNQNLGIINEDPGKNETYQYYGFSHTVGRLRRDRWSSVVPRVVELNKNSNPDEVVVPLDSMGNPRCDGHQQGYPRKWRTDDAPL
# Procedure: 1.4.3 Ion Channel Profiling at Charles River
# Table S9. Compound 24 was tested against the following ion channels at Charles River Laboratories. […]
# ScreenPatch Assay Kv1.3 potassium channel (human KCNA3 gene) expressed in CHO […]
# (§1) FLIPR Assay expressed in HEK293 cells
# GABAA α5/β3/γ2 ionotropic receptor (human GABRA5, GABRB3, >30 and GABRG2 genes, expressed in HEK293 cells […]
# (§2) An increase in the number of colonies of at least two-fold over baseline (mean + SD of the vehicle control) and a dose response indicate a positive response. An […]
# (§3) different from the vehicle control.
# (§4) Where indicated, S9 fraction from the livers of Aroclor 1254-treated rats were included in the incubation at a final concentration of 4.5%. A NADPH-regenerating system was also included to ensure a steady supply of reducing equivalents.
# [2] = SafetyScreen44 (Eurofins), whole panel; details: at 10 × 10^−6 M
# Procedure: 1.4 Safety Pharmacology of Compound 24
# 1.4.1 Cerep panel (Eurofins)
# Compound 24 was further profiled for its off-target interactions against a panel of 44 targets. The screening was done by Eurofins Pharma Discovery within the SafetyScreen44 Panel (Cerep, ITEM P270). In all assays binding/functional inhibition was determined at 10 µM.
# Table S6. List of binding assays within the CEREP44 off-target panel and binding data for compound […]
# Ca2+ channel (L, dihydropyridine site) (antagonist radioligand) 75.3
# Norepinephrine transporter (h) (antagonist radioligand) 74.7
# Potassium Channel hERG (human) [3H] Dofetilide 73.1 […]
# 5-HT transporter (h) (antagonist radioligand) 49.8 […]
# MAO-A (antagonist radioligand) 24.9 kappa (h) (KOP) (agonist radioligand) 23.6 dopamine transporter (h) (antagonist radioligand) 22.7 […]
# KV channel (antagonist radioligand) 14.2 […]
# 5-HT1A (h) (agonist radioligand) 11.3 alpha2A (h) (antagonist radioligand) 8.4 […]
# [3] = biological target: T2, CYP2C19 (Homo sapiens, UniProt P33261); assay: Cytochrome P450 inhibition assay, CYP2C19; format: in vitro ADME; details: Metabolic activity
# T2 construct: Cyprotex
# T2 sequence (P33261 whole entry): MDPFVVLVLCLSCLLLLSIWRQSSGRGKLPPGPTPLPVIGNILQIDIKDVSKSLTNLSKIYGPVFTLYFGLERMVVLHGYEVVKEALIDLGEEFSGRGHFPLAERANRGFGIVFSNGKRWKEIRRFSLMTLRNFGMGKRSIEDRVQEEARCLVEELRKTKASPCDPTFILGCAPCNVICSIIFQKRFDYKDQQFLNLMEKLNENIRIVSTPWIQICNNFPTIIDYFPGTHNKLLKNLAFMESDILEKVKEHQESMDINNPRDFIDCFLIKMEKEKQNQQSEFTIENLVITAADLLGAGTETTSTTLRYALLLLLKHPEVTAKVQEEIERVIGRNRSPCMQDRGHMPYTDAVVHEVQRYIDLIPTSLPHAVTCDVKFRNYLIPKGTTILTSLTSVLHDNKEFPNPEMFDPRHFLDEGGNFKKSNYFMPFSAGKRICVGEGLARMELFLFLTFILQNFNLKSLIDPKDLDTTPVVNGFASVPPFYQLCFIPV
# Procedure: (§5) 1.4.4 Pharmacokinetic and off-target functional assays (Cyprotex)
# (§6) Compound 24 was assayed at Cyprotex in functional assays for interference with important off-targets as well as important pharmacokinetic parameters. With the exception of plasma protein binding, a dose-response relationship was studied in order to calculate IC50 values.
# (§7) Table S10. Information on in vitro ADMET assays performed at Cyprotex. […]
# as §2, §3, §4
# [4] = biological target: T3, AhR receptor (Homo sapiens, UniProt P35869); assay: AhR nuclear receptor activation, luciferase reporter gene assay; format: cell-based
# T3 construct: Cyprotex
# T3 sequence (P35869 11-848): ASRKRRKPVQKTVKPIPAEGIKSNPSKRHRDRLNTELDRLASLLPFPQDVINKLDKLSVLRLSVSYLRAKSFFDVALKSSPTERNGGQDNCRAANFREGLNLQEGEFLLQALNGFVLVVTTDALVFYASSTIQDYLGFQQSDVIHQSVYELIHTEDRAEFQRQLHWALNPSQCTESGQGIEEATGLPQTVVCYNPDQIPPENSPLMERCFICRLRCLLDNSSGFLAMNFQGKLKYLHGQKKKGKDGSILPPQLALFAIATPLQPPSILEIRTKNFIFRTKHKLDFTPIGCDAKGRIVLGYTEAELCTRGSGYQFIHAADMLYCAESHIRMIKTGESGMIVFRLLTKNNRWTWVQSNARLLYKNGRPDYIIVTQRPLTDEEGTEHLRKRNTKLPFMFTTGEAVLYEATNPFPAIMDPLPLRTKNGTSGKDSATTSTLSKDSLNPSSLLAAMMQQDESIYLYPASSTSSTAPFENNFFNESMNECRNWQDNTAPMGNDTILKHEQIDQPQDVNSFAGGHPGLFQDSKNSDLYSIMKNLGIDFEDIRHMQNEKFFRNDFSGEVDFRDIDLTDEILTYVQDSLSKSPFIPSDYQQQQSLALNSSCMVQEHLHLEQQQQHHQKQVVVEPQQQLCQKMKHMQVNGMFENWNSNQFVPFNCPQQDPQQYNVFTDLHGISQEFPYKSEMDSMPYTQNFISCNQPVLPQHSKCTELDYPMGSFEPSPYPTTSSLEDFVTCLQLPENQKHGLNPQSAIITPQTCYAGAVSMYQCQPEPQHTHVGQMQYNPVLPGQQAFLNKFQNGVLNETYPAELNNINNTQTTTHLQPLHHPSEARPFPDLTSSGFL
# Procedure: as §5, §6, §7, §2, §3, §4
# [5] = biological target: T4, Nav1.5 human sodium ion channel (Homo sapiens, UniProt Q14524); assay: Nav1.5 automated patch clamp CiPA assay (Eurofins); format: cell-based
# T4 construct: Eurofins CYL8004QP2DR
# T4 sequence (Q14524 whole entry): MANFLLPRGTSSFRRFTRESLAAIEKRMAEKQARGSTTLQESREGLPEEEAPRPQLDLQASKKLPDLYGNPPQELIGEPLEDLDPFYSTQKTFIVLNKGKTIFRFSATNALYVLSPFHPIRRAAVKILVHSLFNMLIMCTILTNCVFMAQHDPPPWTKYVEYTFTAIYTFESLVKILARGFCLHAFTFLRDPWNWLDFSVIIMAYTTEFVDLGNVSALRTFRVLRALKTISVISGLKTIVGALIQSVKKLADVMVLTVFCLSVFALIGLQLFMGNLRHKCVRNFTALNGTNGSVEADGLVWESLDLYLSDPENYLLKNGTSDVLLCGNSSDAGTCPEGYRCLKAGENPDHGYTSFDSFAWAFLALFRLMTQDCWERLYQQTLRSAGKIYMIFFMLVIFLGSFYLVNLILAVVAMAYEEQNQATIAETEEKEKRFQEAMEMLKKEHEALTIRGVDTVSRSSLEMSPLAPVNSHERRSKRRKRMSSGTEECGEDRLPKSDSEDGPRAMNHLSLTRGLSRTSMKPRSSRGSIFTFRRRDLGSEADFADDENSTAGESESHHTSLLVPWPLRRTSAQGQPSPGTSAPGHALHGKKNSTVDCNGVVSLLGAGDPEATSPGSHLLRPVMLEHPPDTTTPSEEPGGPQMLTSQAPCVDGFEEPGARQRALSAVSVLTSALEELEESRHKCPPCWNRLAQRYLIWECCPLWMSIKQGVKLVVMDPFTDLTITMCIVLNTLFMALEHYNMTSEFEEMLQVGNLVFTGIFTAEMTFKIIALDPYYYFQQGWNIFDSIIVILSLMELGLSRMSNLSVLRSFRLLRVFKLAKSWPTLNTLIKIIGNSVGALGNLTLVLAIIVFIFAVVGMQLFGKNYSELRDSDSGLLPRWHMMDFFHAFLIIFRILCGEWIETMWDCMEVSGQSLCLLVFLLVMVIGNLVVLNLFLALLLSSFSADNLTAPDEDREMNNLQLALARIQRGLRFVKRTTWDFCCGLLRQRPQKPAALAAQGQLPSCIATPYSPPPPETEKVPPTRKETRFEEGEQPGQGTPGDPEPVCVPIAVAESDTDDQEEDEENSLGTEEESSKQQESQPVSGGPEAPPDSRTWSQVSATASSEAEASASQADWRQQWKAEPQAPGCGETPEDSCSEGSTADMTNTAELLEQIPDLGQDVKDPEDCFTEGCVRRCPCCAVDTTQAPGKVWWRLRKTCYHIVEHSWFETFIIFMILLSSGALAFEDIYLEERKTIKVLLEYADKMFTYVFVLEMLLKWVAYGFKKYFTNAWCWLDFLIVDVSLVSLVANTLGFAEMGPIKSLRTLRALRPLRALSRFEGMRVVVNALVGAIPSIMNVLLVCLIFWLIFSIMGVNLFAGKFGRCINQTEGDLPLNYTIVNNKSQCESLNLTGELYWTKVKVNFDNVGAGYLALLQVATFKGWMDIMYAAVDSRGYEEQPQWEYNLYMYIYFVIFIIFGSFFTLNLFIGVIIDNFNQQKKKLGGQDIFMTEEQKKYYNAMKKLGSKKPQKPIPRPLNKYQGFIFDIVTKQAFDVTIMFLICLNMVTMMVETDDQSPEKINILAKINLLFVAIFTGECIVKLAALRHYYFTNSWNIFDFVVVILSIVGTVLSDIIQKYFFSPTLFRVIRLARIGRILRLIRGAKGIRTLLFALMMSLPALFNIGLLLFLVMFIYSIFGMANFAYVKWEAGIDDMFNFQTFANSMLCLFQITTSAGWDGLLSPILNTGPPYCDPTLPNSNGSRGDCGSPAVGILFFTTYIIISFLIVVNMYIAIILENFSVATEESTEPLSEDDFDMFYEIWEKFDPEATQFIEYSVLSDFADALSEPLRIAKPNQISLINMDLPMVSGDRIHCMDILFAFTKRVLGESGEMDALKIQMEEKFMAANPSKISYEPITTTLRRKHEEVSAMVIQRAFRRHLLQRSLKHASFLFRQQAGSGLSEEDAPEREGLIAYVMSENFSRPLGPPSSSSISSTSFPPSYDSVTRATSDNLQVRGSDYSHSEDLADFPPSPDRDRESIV
# Procedure: 1.4.2 Further functional off-target assays (Eurofins)
# Table S8. Compound 24 was further tested in the following functional assays at Eurofins.
# ASSAY NAME ESTIMATED IC50 [µM] […]
# Nav1.5 human sodium ion channel cell based automated patch clamp >30 µM
# CiPA assay (CYL8004QP2DR) […]
# as §1
# GABAA α5/β3/γ2 ionotropic receptor (human GABRA5, GABRB3, >30
# and GABRG2 genes, expressed in HEK293 cells
# [6] = test system: Pseudomonas aeruginosa strain PA14; assay: Alkylquinolone quantification, strain PA14; format: cell-based
# Procedure: 1.2.2 Pyocyanin assay in Pseudomonas aeruginosa
# Inhibition of pyocyanin biosynthesis of compounds was measured spectrophotometrically as previously described.[2] Pseudomonas aeruginosa PA14 was grown in rich medium for 16 h under agitation with and without compound. Pyocyanin was extracted from cultures with chloroform, then re-extracted with 0.2 M HCl and quantified photometrically (520 nm). IC50 values were determined from dose-response curves of compounds using at least six different concentrations and fitting with non-linear regression analysis (OriginPro 2017–2020, Originlab Corporation).
# 1.2.3 Alkylquinolone quantification
# Inhibition of alkylquinolone (AQ) signal molecule biosynthesis of compound 24 was analyzed via LC-ESI-MS/MS. Extracellular concentrations of the AQs PQS (2-heptyl-3-hydroxy-4-quinolone), HHQ (2-heptyl-4-quinolone), HQNO (N-oxo-2-heptyl-4-Hydroxyquinoline), 2-AA (2-aminoacetophenone) were measured from supernatants of cultures incubated with or without compound for 17 h. 5,6,7,8-Tetradeutero-2-heptyl-4(1H)-quinolone (HHQ-d4) was added as internal standard before sample preparation. IC50 values were calculated according to the procedure of the pyocyanin assay (see above). LC-ESI-MS/MS conditions were as follows: Dionex Ultimate 3000 HPLC instrument parameters: Zorbax Eclipse XDB 80 Å C18 5 µm 4.6 x 50 mm (Agilent, Santa Clara, CA, USA); eluent A – H2O with 0.1% trifluoroacetic acid (TFA), 0.1% pentafluoropropionic acid (PFPA), 0.1% heptafluorobutyric acid (HFBA); eluent B – acetonitrile with 0.1% TFA, 0.1% PFPA, 0.1% HFBA; isocratic 50% A; flow – 0.7 mL/min. TSQ Quantum Access Max (Thermo Fisher Scientific, Waltham, MA, USA) instrument parameters: Spray voltage 3500 V, vaporizer temperature 370 °C, sheath gas pressure 35 psi, aux gas pressure 30 psi, capillary temperature 270 °C, collision pressure 1.5 mTorr, positive ionization mode. For AQ analyte reaction monitoring parameters please see Table S1.
# Table S1. LC-ESI-MS/MS reaction monitoring parameters of AQ analytes in positive ionization mode. […]
# Six replicates per sample were distributed evenly across the plate, with every row containing one replicate of each sample. The well plate was covered with the peg lid. One layer of parafilm was wrapped around the biofilm inoculator. The inoculator was incubated at 37 °C, static for 24 h with a beaker of H2O ensuring humidity. Alternatively, the plate was incubated using only LB for 8 h prior to addition of DMSO/24 to give 1% DMSO, followed by another 16 h incubation under the same […]
# After 24 h, the plate was removed from the incubator and the peg lid was transferred to a fresh 96 well plate (Nunc U bottom, Thermo Fisher, Dreieich, Germany) containing the respective target
smiles,measurement,setting,value
CC(C)Oc1ccc(-c2ncc(CNc3ccnc(C(F)(F)F)c3)cn2)cc1Cl [Compound 24],IC50,[1],> 30 µM
same,effects on any target of SafetyScreen44,[2],≤ 80%
same,IC50,[3],> 25 µM
same,fold AhR receptor induction,[4]; fold activation @1 × 10^−6 M,0.91 @1 × 10^−6 M ^a)
same,AhR induction,[4]; up to 25 × 10^−6 M,Neither AhR induction
same,IC50,[5],> 30 µM
same,IC50,"[6]; PA14, 17 h, read-out: IC50 PA14, 2‐AA biosynthesis",386 nM
same,IC50,"[6]; PA14, 17 h, read-out: IC50 PA14, HHQ biosynthesis",233 nM
same,IC50,"[6]; PA14, 17 h, read-out: IC50 PA14, HQNO biosynthesis",347 nM
same,IC50,"[6]; PA14, 17 h, read-out: IC50 PA14, PQS biosynthesis",349 nM
same,IC50,"[6]; PA14, read-out: IC50 values for individual AQs",160 to 453 nM
